Laboratory results reported in patent US4448763A, “Alteration of gallium biodistribution using indium complexes for enhanced early imaging” (priority 1980, dated 1984).

Columns and labels:
[1] = Imaging of 67Ga distribution in non-tumored rats, clearing agent six hours post dosing; type: in vivo, male Sprague Dawley rats
From the text: Initial studies used non-tumored male Sprague Dawley rats weighing between 250 and 300 grams. […] In all imaging studies, the animals were anesthetized by intraperitoneal injection of urethane (1 gm/Kg), and the left external jugular vein cannulated as a dosing site. The animals were then positioned under the detection of the γ-camera (Union Carbide; CLEON 720 Large Field Gamma Camera coupled with a CLEON 110 Image Processor) and images were obtained periodically.

[2] = Blood clearance of 67Ga (external blood loop), clearing agent given six hours after radiopharmaceutical; type: in vivo, male Sprague Dawley rats; parameters: % Increase in Blood Activity / Net Decrease in blood activity / % Decrease in Blood Activity: concentration or dose not given beside the values; details: for % Decrease in Blood Activity: 67Ga blood activity, clearing agent six hours after injection of radiopharmaceutical; for Net Decrease in blood activity / % Increase in Blood Activity / change in blood activity (in words): clearing agent six hours after radiopharmaceutical; for % Increase in Blood Activity: rise following the initial drop
[3] = relatively large doses; cited from earlier work
5123C hepatoma [4] = assay: Imaging of 67Ga distribution in tumored rats, clearing agent two hours after radiopharmaceutical; type: in vivo, male Buffalo rats
Method: FIGS. 3A-3C are scans (Union Carbide Cleon model 720 large field gamma camera) of Buffalo rats bearing implanted 5123C hepatomas.
At this point, the rat on the left received carrier gallium citrate (3.3 mg/Kg) and the rat on the right received indium citrate (2.1 mg/Kg).
Initial studies used non-tumored male Sprague Dawley rats weighing between 250 and 300 grams. Subsequent studies in tumored rats used male Buffalo rats bearing a 5123C hepatoma (The tumor line was initiated from donor animals donated by Drs. R. L. Hayes and B. Byrd of the Oak Ridge Associated Universities). In all imaging studies, the animals were anesthetized by intraperitoneal injection of urethane (1 gm/Kg), and the left external jugular vein cannulated as a dosing site. The animals were then positioned under the detection of the γ-camera (Union Carbide; CLEON 720 Large Field Gamma Camera coupled with a CLEON 110 Image Processor) and images were obtained periodically.
When the clearing agent was given two hours post radiopharmaceutical dosing, there were significant changes in gallium-67 distribution (FIG. 3). […] The results from use of indium citrate were somewhat more dramatic in that the activity is greatly diminished throughout the soft tissue regions. […] The most significant distributional change, however, is the obvious increase in tumor activity. […] To test this hypothesis, indium citrate was given with gallium-67 citrate as a single solution. […] Twenty minutes after the mixed dose is given, there is little activity outside the kidneys, bladder, tumor and bone. After two hours, there is essentially no activity in the animal other than in the above mentioned regions.

5123C hepatoma [5] = assay: Imaging of 67Ga distribution in tumored rats, clearing agent six hours after radiopharmaceutical
[6] = Blood clearance of 67Ga (external blood loop), clearing agent given two hours after radiopharmaceutical; type: in vivo, male Sprague Dawley rats
Method: Relative tissue concentrations are monitored by external imaging.
For blood clearance studies, male Sprague Dawley rats weighing 250-300 grams were used. The animals were anesthetized by peritoneal injection of an aqueous solution of urethan (1 gm/Kg). The right carotid artery and left jugular vein were exposed and an external blood loop (PE-50 tubing; volume.perspectiveto.0.14 ml) was inserted between the vessels. […] The right external jugular vein was then exposed and cannulated as an injection site. The animal was placed in a lead cradle and the blood loop inserted into the shielded well of a sodium iodide.thallium crystal. The animal received an injection of carrier-free gallium citrate (100-120 μCi) via the jugular cannula. […] Six hours post injection, the animal received a second injection containing one of the clearing agents (.perspectiveto.7.2 mmole/Kg). In subsequent experiments, clearing agents were administered two hours after or simultaneously with the radioactive dose.

[7] = cited from earlier work
[8] = in vivo; cited from earlier work
[9] = versus gallium alone; cited from earlier work
[10] = Blood activity-time curve of carrier-free gallium-67 citrate, no clearing agent; type: in vivo, normal Sprague Dawley rat; details: single i.v.
From the text: In this study, an external blood-loop technique (Int J of Appl Radiat Isot 29: 189-190, 1978) is used to monitor blood activity of the radiopharmaceutical as a function of time. Relative tissue concentrations are monitored by external imaging.
For blood clearance studies, male Sprague Dawley rats weighing 250-300 grams were used. The animals were anesthetized by peritoneal injection of an aqueous solution of urethan (1 gm/Kg). The right carotid artery and left jugular vein were exposed and an external blood loop (PE-50 tubing; volume.perspectiveto.0.14 ml) was inserted between the vessels. Blood was diverted from the artery, through the loop, and back to the animal via the vein (Int J of Appl Radiat Isot 29: 189-190, 1978). The right external jugular vein was then exposed and cannulated as an injection site. The animal was placed in a lead cradle and the blood loop inserted into the shielded well of a sodium iodide.thallium crystal. The animal received an injection of carrier-free gallium citrate (100-120 μCi) via the jugular cannula. Blood activity within the loop was continuously monitored as a function of time using a Packard Model 9012 Multi-channel Analyzer/Multi-scaler system (Packard Instrument Co., Downersville, Ill.). Six hours post injection, the animal received a second injection containing one of the clearing agents (.perspectiveto.7.2 mmole/Kg). […]

[11] = cited from earlier work; remark: listed apart in the source
induced abscesses = details: rabbits bearing induced abscesses; cited from earlier work
[12] = clearing agent two hours post radiopharmaceutical, gallium citrate 3 mg/Kg, […] 2.1 mg/Kg
[13] = clearing agent two hours after radiopharmaceutical

CC(O)C(=O)[O][Al]([O]C(=O)C(C)O)[O]C(=O)C(C)O (centres unmarked) [Aluminum, aluminum lactate]
redistribution of radioactivity (imaging) [1]: no significant redistribution of the radioactivity
% Decrease in Blood Activity [2]: 9%
Net Decrease in blood activity [2]: 6%
% Increase in Blood Activity [2]: 3%

O=C([O-])CC(O)(CC(=O)[O-])C(=O)[O-].[Ga+3] [Gallium, gallium citrate]
effect on blood and tumor activity [3]: decrease blood activity without significantly reducing tumor activity
redistribution of radioactivity (imaging) [1]: shifted the radioactivity out of the blood/soft tissue regions and into the kidneys and the bladder
clearing of soft tissue / abdominal activity (imaging) (5123C hepatoma [4]; [12]): some clearing in the upper abdomen and in regions of the lower abdomen
tumor activity (imaging) (5123C hepatoma [4]; [12]): little loss of activity from the tumor region
activity bound within tumors (imaging, summary) (5123C hepatoma [4]; moderate doses of carrier gallium, […] two hours after radiopharmaceutical): obviously affected
% Decrease in Blood Activity [2]: 40%
% Decrease in Blood Activity ([2]; listed as non-radioactive gallium): approximately 40%
Net Decrease in blood activity [2]: 25%
change in blood activity (in words) [2]: decrease very rapidly
blood activity reduction vs no clearing agent ([2]; eight hours post radiopharmaceutical dosing, gallium 3.3 mg/Kg at six hours): approximately 25%
% Increase in Blood Activity [2]: 15%
redistribution of radioactivity outside tumor (imaging) (5123C hepatoma [5]; gallium citrate 3 mg/Kg): less dramatic effect
loss of activity from the tumor (imaging) (5123C hepatoma [5]; gallium citrate 3 mg/Kg, compared with high dose): much less
redistribution of radioactivity outside tumor (imaging) (5123C hepatoma [5]; gallium citrate 15 mg/Kg): obvious redistributions of radioactivity
tumor activity (imaging) (5123C hepatoma [5]; gallium citrate 15 mg/Kg): tumor activity was observed to decrease
blood activity cleared [6, 13]: 78%
subsequent rise in blood activity (in words) [6, 13]: characteristic rise in activity
net clearance of blood activity ([6]; two hours after radiopharmaceutical, gallium 3.3 mg/Kg): 70%

O=C([O-])CC(O)(CC(=O)[O-])C(=O)[O-].[Sc+3] [Scandium citrate]
tumor to blood and tumor to tissue ratios ([7]; gallium-67 and scandium citrates injected simultaneously): extremely high tumor to blood and tumor to tissue ratios
effect upon gallium binding in tumors ([7]; in vivo): little or no effect upon gallium binding in tumors
hemolytic anemia [8]: severe hemolytic anemia

CC(=O)[O-].CC(=O)[O-].CC(=O)[O-].[Tl+3] [Thallium, thallium triacetate]
redistribution of radioactivity (imaging) [1]: no significant redistribution of the radioactivity
% Decrease in Blood Activity [2]: 0%
Net Decrease in blood activity [2]: 0%
change in blood activity (in words) [2]: no change in blood activity
% Increase in Blood Activity [2]: 0%

CC(=O)N(O)CCCCCNC(=O)CCC(=O)N(O)CCCCCNC(=O)CCC(=O)N(O)CCCCCN [desferoxamine]
renal elimination rate of gallium desferoxamine complex [9]: rate greater than that observed for gallium alone

O=C([O-])CC(O)(CC(=O)[O-])C(=O)[O-].[67Ga+3] [gallium-67 citrate]
t1/2 of very rapid component of blood curve [10]: 12 s
time to completion of rapid distribution process ([10]; after dosing): four to six
time of maximum gallium activity in tumors ([11]; after intravenous administration): eighteen
plasma / blood and soft tissue protein binding ([11]; given in very low doses): extensively bound
clearing from blood and soft tissue binding sites ([11]; in vivo): slow process
radiation dose ([11]; prolonged retention of 67Ga in the body): relatively high radiation dose

iron dextran
clearing of gallium and abscess uptake (induced abscesses): clearing of gallium with enhanced abscess uptake of gallium
